The values that follow come from patent US6534516B1, “Androgen receptor modulator compounds and methods” (Ligand Pharmaceuticals Incorporated, priority 1996, dated 2003).

Assay [1] addresses T1, PR (Homo sapiens, UniProt P06401).
T1 sequence (P06401 1-933): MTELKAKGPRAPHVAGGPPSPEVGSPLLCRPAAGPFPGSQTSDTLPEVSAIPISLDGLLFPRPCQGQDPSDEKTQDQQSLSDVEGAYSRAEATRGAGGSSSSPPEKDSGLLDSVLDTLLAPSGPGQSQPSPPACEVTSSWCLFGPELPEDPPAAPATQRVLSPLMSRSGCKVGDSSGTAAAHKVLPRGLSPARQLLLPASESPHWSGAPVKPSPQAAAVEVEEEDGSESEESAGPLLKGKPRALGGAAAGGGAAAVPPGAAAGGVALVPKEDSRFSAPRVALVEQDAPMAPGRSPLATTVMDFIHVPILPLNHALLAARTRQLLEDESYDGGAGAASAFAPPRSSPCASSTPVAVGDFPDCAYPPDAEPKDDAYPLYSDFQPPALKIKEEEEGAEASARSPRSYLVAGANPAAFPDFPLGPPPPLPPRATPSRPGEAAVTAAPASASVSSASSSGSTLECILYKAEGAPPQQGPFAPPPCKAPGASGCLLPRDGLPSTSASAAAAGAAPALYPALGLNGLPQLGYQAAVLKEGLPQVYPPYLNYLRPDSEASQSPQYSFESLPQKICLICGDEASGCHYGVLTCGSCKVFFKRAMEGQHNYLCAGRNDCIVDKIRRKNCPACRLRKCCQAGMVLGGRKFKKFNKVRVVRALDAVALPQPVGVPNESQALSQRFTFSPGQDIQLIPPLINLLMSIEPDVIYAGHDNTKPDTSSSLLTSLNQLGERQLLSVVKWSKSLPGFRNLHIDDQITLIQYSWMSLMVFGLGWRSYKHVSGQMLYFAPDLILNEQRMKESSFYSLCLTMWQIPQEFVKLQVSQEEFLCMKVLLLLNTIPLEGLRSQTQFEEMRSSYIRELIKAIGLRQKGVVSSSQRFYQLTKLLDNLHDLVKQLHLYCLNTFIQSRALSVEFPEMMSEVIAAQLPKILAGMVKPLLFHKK
Kind of assay: cell-based.

Assay [2] addresses T2, human AR (Homo sapiens, UniProt P10275).
T2 construct: expressed in transfected cells; host or cells: CV-1 cells (African green monkey kidney fibroblasts)
T2 sequence (P10275 1-920): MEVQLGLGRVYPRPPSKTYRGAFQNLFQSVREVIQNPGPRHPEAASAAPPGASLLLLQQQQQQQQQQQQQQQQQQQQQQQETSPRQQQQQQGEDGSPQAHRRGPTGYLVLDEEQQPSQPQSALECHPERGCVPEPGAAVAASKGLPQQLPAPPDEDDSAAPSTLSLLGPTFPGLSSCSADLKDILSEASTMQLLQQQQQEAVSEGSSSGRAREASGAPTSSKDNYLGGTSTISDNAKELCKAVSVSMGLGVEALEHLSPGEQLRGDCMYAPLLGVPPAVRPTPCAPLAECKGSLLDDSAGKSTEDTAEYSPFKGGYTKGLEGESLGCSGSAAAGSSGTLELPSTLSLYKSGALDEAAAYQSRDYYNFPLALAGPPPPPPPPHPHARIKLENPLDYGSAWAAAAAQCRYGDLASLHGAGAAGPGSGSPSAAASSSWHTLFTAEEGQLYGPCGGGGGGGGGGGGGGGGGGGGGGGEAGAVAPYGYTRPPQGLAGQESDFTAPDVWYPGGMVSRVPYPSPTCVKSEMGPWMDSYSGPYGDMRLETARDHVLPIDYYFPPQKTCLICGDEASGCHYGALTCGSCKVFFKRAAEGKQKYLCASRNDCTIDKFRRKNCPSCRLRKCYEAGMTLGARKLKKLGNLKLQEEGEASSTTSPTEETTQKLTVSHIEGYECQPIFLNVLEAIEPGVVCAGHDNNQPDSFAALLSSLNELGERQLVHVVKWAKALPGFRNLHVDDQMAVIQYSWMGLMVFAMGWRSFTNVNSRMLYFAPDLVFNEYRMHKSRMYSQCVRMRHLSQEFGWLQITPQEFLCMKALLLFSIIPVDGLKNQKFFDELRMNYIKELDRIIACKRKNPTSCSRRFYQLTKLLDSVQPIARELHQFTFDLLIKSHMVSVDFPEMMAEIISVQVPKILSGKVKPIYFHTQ
Kind of assay: cell-based. The settings on record: read-out: AR Binding Ki.

The target of assay [3] is T2, human AR. Put plainly: cell-based. The assay is classed as cell-based. The settings on record: for AR Antagonist CV-1 Cells Efficacy: antagonist mode, DHT at its EC50, % of maximal inhibition, na = not active; for IC50: read-out: AR Antagonist CV-1 Cells Potency; for EC50: read-out: AR Agonist CV-1 Cells Potency; for AR activity profile (in words): summary of Tables 1 and 2. An excerpt:
The co-transfection assay provides a method for identifying functional agonists and partial agonists which mimic, or antagonists which inhibit, the effect of native hormones, and quantifying their activity for responsive IR proteins. In this regard, the co-transfection assay mimics an in vivo system in the laboratory. Importantly, activity in the co-transfection assay correlates very well with known in vivo activity, such that the co-transfection assay functions as a qualitative and quantitative predictor of a tested compounds in vivo pharmacology. See, e.g., T. Berger et al. 41 J. Steroid Biochem. Molec.
CV-1 cells (African green monkey kidney fibroblasts) were cultured in the presence of Dulbecco's Modified Eagle Medium (DMEM) supplemented with 10% charcoal resin-stripped fetal bovine serum then transferred to 96-well microtiter plates one day prior to transfection.
The reporter plasmid, MTV-LUC, contains the cDNA for firefly luciferase (LUC) under control of the mouse mammary tumor virus (MTV) long terminal repeat, a conditional promoter containing an androgen response element. See e.g., Berger et al. supra. In addition, pRS-β-Gal, coding for constitutive expression of E. coli β-galactosidase (β-Gal), was included as an internal control for evaluation of transfection efficiency and compound toxicity.
Three to four replicates were used for each sample.
After 40 hours, the cells were washed with PBS, lysed with a Triton X-100-based buffer and assayed for LUC and β-Gal activities using a luminometer or spectrophotometer, respectively. For each replicate, the normalized response (NR) was calculated as:
where β-Gal rate=β-Gal•1×10^−5/β-Gal incubation time.

The target in assay [4] is T3, MR (Homo sapiens, UniProt P08235).
T3 construct: expressed in transfected cells
T3 sequence (P08235 1-984): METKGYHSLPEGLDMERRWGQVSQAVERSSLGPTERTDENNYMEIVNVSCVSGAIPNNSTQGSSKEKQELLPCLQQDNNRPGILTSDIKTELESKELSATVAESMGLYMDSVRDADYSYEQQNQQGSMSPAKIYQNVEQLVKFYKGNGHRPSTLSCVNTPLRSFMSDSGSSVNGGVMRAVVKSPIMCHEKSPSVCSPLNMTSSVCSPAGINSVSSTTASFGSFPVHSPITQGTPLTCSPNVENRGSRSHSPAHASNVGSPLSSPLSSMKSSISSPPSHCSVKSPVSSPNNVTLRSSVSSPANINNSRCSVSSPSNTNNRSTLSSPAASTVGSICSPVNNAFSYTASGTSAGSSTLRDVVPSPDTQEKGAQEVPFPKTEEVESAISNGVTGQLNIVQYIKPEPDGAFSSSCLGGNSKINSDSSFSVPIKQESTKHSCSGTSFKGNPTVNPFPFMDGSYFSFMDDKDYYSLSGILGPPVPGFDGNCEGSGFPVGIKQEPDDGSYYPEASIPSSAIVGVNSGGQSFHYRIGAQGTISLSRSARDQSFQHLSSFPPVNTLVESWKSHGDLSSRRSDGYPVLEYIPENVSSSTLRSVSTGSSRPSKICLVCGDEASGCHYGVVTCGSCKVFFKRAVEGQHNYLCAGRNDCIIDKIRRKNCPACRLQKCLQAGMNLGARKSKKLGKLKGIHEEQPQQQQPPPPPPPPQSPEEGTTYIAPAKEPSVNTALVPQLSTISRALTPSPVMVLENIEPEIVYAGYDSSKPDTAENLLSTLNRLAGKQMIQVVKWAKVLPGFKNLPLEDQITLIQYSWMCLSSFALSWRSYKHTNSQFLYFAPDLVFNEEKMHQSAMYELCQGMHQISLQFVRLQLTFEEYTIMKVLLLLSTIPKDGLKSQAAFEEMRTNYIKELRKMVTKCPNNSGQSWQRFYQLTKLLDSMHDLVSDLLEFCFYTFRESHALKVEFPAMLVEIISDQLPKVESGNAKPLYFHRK
Put plainly: Co-transfection assay, cross-reactivity on MR. The format is cell-based.

In turn, `Cn1c(=O)c(F)c(C(F)(F)F)c2cc3c(cc21)N1CCCC1(C)CC3` (racemic) [Compound 104, (R/S)-3-Fluoro-6,7,7a,11-tetrahydro-1,7a-dimethyl-4-trifluoromethyl-2-pyridono[5,6-g]pyrrolidino[1,2-a]quinoline] gave an IC50 in assay [1] of 800 nM. Moreover, the inhibition constant (Ki) in assay [2] came to 93 ± 48 nM. Further, in assay [3], the “AR Antagonist CV-1 Cells Efficacy” value is listed as 85 ± 2% and the IC50 was found to be 40 ± 9 nM.
`Cn1c(=O)cc(C(F)(F)F)c2cc3c(cc21)N1CCCC1(C)CC3` (racemic) [Compound 103, (R/S)-6,7,7a,11-Tetrahydro-1,7a-dimethyl-4-trifluoromethyl-2-pyridono[5,6-g]pyrrolidino[1,2-a]quinoline]: the IC50 in assay [4] worked out at 1590 nM; in assay [1], 5940 nM.
Regarding `CN1c2cc3c(cc2CCC1(C)C)c(C(F)(F)F)c(F)c(=O)n3C` [Compound 109, 7-Fluoro-1,2,3,4-tetrahydro-1,2,2,9-tetramethyl-6-trifluoromethyl-8-pyridono[5,6-g]quinoline], the Ki in assay [2] was 18 ± 7 nM. For the same compound, in assay [3], the “AR Agonist CV-1 Cells Efficacy” value is recorded as 13 ± 8 %, the “AR Antagonist CV-1 Cells Efficacy” value was found to be 77 ± 4%, the EC50 was found to be 36 ± 45 nM and the IC50 is 15 ± 2 nM. For the same compound, in assay [3], the “AR activity profile (in words)” value is “highly selective AR antagonists”.
In assay [1], `CC12CCCN1c1cc3[nH]c(=O)c(F)c(C(F)(F)F)c3cc1CC2` (racemic) [Compound 102, (R/S)-3-Fluoro-6,7,7a,11-tetrahydro-7a-methyl-4-trifluoromethyl-2-pyridono[5,6-g]pyrrolidino[1,2-a]quinoline] showed an IC50 of 398 nM. Moreover, the Ki in assay [2] was found to be 11 nM. In addition, in assay [3], the “AR Antagonist CV-1 Cells Efficacy” value is reported as 85 ± 1% and the IC50 stood at 193 ± 19 nM.
With `CC1CC(C)(C)Nc2cc3[nH]c(=O)c(F)c(C(F)(F)F)c3cc21` (stereo not shown) [Compound 112, 7-Fluoro-1,2,3,4-tetrahydro-2,2,4-trimethyl-6-trifluoromethyl-8-pyridono[5,6-g]quinoline], the Ki in assay [2] stood at 61 ± 16 nM. For the same compound, in assay [3], the “AR Agonist CV-1 Cells Efficacy” value came to 21 ± 6%, the “AR Antagonist CV-1 Cells Efficacy” value is listed as 42 ± 10%, the EC50 worked out at 26 ± 15 nM and the IC50 worked out at 20 ± 1 nM. Also, the “AR activity profile (in words)” value in assay [3] is “highly selective AR antagonists”.

The term Ki denotes the dissociation constant of the complex between target and ligand, obtained from inhibition or displacement.
